These results are taken from ChEMBL document CHEMBL5338741, “Discovery of an In Vivo Chemical Probe for BCL6 Inhibition by Optimization of Tricyclic Quinolinones” (J Med Chem, 2023).

For experiment [1], the target named is BCL-6/NCOR2 (Homo sapiens) (UniProt Q9Y618+P41182). The settings on record: HEK293T, time 6.0 hrs.
Experiment [2] concerns the target B-cell lymphoma 6 protein (Homo sapiens, UniProt P41182).
The target of another experiment is BCL-6/NCOR2 (Homo sapiens, UniProt P41182). Type of experiment: cell-based, HEK293T.

pIC50: −log10 of the molar value.

BCL-6/NCOR2 (Homo sapiens), sequence (Q9Y618 whole entry, looked up, other chains not shown): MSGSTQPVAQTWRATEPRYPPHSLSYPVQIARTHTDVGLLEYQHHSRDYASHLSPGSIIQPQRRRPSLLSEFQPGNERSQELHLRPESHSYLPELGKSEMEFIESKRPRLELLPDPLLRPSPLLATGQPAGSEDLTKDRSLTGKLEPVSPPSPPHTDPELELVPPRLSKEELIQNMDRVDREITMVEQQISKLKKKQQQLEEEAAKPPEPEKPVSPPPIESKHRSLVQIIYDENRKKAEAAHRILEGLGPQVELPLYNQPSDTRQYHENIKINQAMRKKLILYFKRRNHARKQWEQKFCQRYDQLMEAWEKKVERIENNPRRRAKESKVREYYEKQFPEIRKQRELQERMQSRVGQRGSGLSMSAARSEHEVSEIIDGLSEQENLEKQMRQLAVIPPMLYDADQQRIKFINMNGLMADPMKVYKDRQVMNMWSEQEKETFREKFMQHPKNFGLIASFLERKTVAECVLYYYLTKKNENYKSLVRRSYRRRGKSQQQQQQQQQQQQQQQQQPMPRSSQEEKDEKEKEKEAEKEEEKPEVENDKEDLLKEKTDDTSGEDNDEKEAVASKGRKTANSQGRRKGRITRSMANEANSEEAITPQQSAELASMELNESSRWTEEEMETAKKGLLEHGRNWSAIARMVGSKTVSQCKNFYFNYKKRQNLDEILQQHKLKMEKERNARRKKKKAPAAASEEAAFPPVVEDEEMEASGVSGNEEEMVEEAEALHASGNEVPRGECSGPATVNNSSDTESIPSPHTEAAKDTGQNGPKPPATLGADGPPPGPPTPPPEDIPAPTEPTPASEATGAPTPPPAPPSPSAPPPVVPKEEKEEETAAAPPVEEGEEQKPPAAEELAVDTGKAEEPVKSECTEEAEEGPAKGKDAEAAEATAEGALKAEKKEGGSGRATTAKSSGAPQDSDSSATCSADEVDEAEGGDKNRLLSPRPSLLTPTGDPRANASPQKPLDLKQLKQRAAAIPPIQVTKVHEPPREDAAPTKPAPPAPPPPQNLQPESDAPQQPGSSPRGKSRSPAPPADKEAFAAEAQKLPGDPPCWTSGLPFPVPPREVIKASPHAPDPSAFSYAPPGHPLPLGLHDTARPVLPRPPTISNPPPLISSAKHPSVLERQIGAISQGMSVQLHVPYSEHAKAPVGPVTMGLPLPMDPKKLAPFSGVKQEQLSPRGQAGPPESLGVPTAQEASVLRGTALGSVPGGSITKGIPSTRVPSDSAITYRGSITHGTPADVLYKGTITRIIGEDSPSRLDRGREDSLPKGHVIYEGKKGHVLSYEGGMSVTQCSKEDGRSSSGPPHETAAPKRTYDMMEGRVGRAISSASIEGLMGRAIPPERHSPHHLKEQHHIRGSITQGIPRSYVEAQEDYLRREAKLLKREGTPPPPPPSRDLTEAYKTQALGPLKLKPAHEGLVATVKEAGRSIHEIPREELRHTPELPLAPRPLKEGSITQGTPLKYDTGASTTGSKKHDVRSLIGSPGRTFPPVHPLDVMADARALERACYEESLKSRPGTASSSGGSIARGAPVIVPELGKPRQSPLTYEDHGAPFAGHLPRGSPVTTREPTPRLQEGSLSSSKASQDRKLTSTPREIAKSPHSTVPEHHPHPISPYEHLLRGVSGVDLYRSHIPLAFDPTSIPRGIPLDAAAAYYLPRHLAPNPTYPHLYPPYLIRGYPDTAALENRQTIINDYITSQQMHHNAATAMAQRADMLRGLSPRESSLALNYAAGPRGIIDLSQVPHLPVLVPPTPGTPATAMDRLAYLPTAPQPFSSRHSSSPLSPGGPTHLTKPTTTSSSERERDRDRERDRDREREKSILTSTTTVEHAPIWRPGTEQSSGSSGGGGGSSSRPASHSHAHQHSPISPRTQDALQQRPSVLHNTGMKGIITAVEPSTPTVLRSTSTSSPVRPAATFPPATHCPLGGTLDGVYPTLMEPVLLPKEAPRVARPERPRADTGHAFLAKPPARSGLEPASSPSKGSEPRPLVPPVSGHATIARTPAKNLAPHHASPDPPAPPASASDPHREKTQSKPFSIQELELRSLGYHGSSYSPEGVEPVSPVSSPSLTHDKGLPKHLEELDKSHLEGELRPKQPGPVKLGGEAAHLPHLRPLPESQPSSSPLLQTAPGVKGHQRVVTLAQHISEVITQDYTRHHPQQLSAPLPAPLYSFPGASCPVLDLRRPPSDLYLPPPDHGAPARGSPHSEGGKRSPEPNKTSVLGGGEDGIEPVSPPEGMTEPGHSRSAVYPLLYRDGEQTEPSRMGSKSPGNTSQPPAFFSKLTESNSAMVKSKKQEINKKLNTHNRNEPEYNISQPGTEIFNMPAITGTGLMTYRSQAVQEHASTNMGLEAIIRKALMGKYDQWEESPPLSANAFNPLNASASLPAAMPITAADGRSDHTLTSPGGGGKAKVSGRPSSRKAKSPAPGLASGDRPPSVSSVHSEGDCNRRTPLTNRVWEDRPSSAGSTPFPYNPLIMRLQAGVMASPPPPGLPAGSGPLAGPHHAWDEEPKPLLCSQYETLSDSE

Consider `Cn1c(=O)c2c(c3cc(Nc4nc(N5CC(F)(F)C5)ncc4Cl)ccc31)N[C@@H](C1CC1)C(F)(F)CO2`, for which, in experiment [1], the fIC50 is 8.9 nM and the fIC90 turned out to be 50 nM.

Consider `CC(=O)N1CC2CCC(C1)N2c1ncc(Cl)c(Nc2ccc3c(c2)c2c(c(=O)n3C)OCC(F)(F)[C@H](C3CC3)N2)n1`, for which the negative-log IC50 (pIC50) – broadly, −log10 of the IC50, conventionally taken in molar units – in experiment [2] was 9.05; on BCL-6/NCOR2 it was 7.57.

In the case of `Cn1c(=O)c2c(c3cc(Nc4nc(N5C6CCC5COC6)ncc4Cl)ccc31)N[C@@H](C1CC1)C(F)(F)CO2`, in experiment [1], the IC90 (as a rule, the concentration at which the effect reaches the 90% level) stood at 3.2 nM; the fIC50 was determined as 143 nM; the fIC90 came to 42 nM.

For the compound `Cn1c(=O)c2c(c3cc(Nc4ccnc(F)c4Cl)ccc31)N[C@@H](C1CC1)C(F)(F)CO2`, in experiment [1], the fIC50 turned out to be 6.8 nM and the fIC90 was 44 nM.

Turning to `CC(=O)N1C2CCC1CN(c1ncc(Cl)c(Nc3ccc4c(c3)c3c(c(=O)n4C)OCC(F)(F)[C@H](C4CC4)N3)n1)C2`, the negative logarithm of the IC50 (pIC50) in experiment [2] was 8.72; on BCL-6/NCOR2, 7.39.
